We go through two compounds from patent US8809358B2, “Use of IκB-kinase inhibitors in pain therapy” (Sanofi-Aventis Deutschland GmbH, priority 2002, dated 2014).

One test has as its target T1, IκB-kinase (Homo sapiens, UniProt O14920+O15111).
T1 construct: endogenous in cells; host or cells: HeLa S3 cell extract S100; ammonium sulfate cut and Superose-6 gel filtration (670 kDa fractions)
Description: IκB-Kinase ELISA. Particulars: kinase complex from HeLa S3 cell extract, activated with MEKK1Δ. Format: biochemical. Background: In an ELISA, binding on a coated surface is turned into a signal by an enzyme label.

The subject of test [1] is Kaolin/carrageenan-induced knee joint inflammation. Description: Kaolin/carrageenan-induced knee joint inflammation in the rat: reaction of spinal neurons during pressure stimulation of the knee. Format: in vivo. From the text:
• Zymosan-induced paw inflammation in the rat; • Parameter: paw withdrawal time or paw withdrawal threshold during thermal or mechanical stimulation of the hind paw. 2nd Model: • Kaolin/carrageenan-induced knee joint inflammation in the rat; • Parameter: reaction of spinal neurons during pressure stimulation of the knee. Model 1
Experimental implementation: In rats which were under sodium thiopental anesthesia, the spinal canal was opened and spinal medullary neurons which processed the “pain impulses” from the knee-joint were identified. Following identification, a long-term recording, in which the activity of the nerve cell was recorded before and during the development of an acute inflammation in the knee-joint, was carried out. For this, the responses to non-noxious and noxious stimulation at the knee-joint were measured in a control period before inducing the inflammation and for several hours after inducing the inflammation.
The acute inflammation was induced by the intraarticular injection of a suspension (about 150 μl) of kaolin and carrageenan. In controlled experiments, only the vehicle was applied to the spinal medullary surface in order to represent the development of the hyperexcitability under control conditions. As a rule, this development of hyperexcitability took place within 2 to 4 hours and was expressed in a marked increase in the responses to non-noxious and noxious stimulation of the knee-joint (Tab. 3). […] The responses of the cell to non-noxious and noxious stimulation were then subsequently monitored as in the control experiments.

Test [2] concerns Zymosan-induced paw inflammation. Description: Zymosan-induced paw inflammation in the mouse: paw withdrawal time during thermal stimulation of the hind paw. Format: in vivo. Particulars: thermal hyperalgesia AUC, seven days; 200 mg/kg twice daily. How it is done: • Zymosan-induced paw inflammation in the mouse; • Parameter: paw withdrawal time during thermal stimulation of the hind paw. Experimental implementation: In short-term anesthesia using isoflurane, 25 μl of a suspension containing 50 mg of zymosan/ml were injected into the right hind paw of the experimental animal. The development of a hyperalgesia was then determined quantitatively as follows: Determining the Paw Withdrawal Time During Thermal Stimulation (Hargreave's Test; See Above). The experimental animal was placed in a transparent plastic chamber having a glass floor. As soon as the experimental animal was no longer moving, following the reconnaissance phase (about 5 min), an infrared light source was positioned directly below the hind paw to be stimulated and switched on. The lamp emitted focused infrared light of increasing intensity such that the skin temperature of the hind paw increased almost linearly. As soon as the animal withdrew the paw, the lamp switched itself off. The temperature of the paw at the time it is withdrawn has just become unpleasant for the animal; this is referred to as the thermal pain threshold. Shortly before the zymosan injection, and for from 7 to 14 days after the injection, the thermal pain threshold was determined once daily on the right hind paw and left hind paw. Subsequently, the integral of the area which was formed from the curves for the paw withdrawal times of the inflamed paw and the noninflamed paw (AUC, area between the curves, see tables 5 and 6) was determined as a measure of the hyperalgesia. The larger this value is, the more pronounced is the hyperalgesia, and the smaller the value is in animals which are being given the substance, the greater is the success of the therapy. […] A very high dose of paracetamol was likewise administered twice daily to another group of animals which was taken through the experiment in parallel. […] The scheme for zymosan injection and dosing was identical to that in the previously described study. The only difference was that this additional study ran for 14 days.

Test [3] has the same test system. Description: Zymosan-induced paw inflammation in the mouse: spontaneous running performance in a running wheel. Format: in vivo, C57/B6 mice. How it is done: 4th Model: • Zymosan-induced paw inflammation in the mouse; • Parameter: spontaneous running performance in a running wheel. In the cage in which it is kept, the experimental animal has access to a running wheel, the revolutions of which are recorded electronically. During the night hours, the C57/B6 mice use the running wheel voluntarily and, after a one-week phase of acclimatization, cover on average 4 100 meters/night. After zymosan has been injected, the distance run each night is reduced. This reduction in running performance is a valid parameter for a restriction in function which is due to inflammation pain. Experimental implementation: After an acclimatization phase of one week, the distance run/24 hours was measured in order to determine the base line. 25 μl of a suspension containing 50 mg of zymosan/ml were then injected into the right hind paw of the experimental animal during short-term anesthesia using isoflurane. The distance run/24 hours was then determined during the following seven days. In the analysis, the area under the curve for the values for the distance run was determined (AUC, tab. 7): the lower the AUC, the lower was the running performance during the week following injection of the zymosan. […] The substance was administered for the first time on day 1 after injection of the zymosan.

T1 sequence (O14920 whole entry): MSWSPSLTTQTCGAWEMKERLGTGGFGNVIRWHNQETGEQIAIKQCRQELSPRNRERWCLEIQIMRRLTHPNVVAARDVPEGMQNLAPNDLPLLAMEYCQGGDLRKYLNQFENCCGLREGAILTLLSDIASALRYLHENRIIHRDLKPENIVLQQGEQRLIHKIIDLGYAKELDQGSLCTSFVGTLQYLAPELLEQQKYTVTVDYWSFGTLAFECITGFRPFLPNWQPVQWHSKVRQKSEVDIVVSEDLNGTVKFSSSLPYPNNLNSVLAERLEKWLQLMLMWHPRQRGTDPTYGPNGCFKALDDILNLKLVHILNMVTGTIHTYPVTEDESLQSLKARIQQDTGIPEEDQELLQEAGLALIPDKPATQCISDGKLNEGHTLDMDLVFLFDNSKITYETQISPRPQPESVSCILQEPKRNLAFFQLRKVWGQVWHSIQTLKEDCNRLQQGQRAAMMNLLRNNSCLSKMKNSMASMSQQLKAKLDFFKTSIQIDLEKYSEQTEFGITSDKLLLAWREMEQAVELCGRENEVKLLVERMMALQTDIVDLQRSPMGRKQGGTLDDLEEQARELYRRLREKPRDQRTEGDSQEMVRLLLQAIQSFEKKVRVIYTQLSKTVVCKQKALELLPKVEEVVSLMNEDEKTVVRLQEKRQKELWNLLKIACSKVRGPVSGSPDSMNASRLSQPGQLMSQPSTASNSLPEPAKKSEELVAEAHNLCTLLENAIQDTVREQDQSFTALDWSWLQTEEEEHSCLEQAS
T1 sequence (O15111 whole entry): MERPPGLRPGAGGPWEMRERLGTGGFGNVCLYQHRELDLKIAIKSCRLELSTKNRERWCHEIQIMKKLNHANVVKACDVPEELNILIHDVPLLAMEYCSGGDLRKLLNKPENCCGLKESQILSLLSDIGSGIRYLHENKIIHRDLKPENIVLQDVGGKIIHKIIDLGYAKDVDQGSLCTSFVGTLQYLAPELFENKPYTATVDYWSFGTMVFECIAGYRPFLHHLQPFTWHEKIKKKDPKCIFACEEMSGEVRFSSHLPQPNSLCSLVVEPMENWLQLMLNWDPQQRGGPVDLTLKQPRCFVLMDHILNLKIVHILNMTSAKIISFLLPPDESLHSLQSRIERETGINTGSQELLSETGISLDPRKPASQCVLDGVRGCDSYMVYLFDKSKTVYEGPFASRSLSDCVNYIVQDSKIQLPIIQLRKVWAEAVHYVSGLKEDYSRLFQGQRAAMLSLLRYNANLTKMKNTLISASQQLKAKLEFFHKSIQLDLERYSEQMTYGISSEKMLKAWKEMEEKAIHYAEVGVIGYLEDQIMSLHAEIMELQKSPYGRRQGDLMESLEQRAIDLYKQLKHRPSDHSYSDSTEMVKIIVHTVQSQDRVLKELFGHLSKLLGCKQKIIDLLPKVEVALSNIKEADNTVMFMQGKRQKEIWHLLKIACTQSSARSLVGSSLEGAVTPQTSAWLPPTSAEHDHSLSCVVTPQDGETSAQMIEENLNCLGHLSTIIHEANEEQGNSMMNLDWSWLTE
T1 sequence (Q9Y6K9 whole entry partner): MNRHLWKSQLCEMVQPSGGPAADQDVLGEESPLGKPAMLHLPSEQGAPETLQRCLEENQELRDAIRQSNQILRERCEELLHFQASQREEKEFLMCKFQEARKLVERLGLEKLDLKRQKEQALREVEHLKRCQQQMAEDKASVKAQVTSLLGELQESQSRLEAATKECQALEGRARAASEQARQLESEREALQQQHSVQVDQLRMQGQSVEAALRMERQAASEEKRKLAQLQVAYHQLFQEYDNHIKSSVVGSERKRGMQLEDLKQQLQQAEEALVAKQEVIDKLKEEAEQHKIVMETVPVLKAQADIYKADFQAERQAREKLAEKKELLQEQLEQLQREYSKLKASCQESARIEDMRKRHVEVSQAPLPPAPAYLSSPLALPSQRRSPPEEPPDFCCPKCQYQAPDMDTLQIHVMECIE

The term IC50 denotes the concentration at which inhibition is half-maximal. The low end stands for higher potency, the high end for lower potency. At IκB-kinase, `CNc1nccc(-c2nc3cc(C(=O)N[C@@H](CN(c4ccccc4)c4ccccc4)C(N)=O)ccc3[nH]2)n1` [Compound 22, N—((S)-1-carbamoyl-2-diphenylaminoethyl)-2-(2-methylaminopyrimidin-4-yl)-1H-benzimidazole-5-carboxamide] came in with an IC50 of 45 nM. The “Neuronal responses before and during knee-joint inflammation (imp/15 s)” value in test [1] (Experiment 1, Non-noxious stimulation at the knee-joint, 30-60 min after K/C injection) is −34.1 imp/15 s; in test [1] (Experiment 1, Non-noxious stimulation at the knee-joint, 60-120 min after K/C injection), −37.2 imp/15 s; in test [1] (Experiment 1, Non-noxious stimulation at the knee-joint, 120-180 min after K/C injection) it was −32.1 imp/15 s; in test [1] (Experiment 1, Non-noxious stimulation at the knee-joint, Baseline) it was 0 imp/15 s; in test [1] (Experiment 1, Noxious stimulation at the knee-joint, 30-60 min after K/C injection), −109.1 imp/15 s; in test [1] (Experiment 1, Noxious stimulation at the knee-joint, 60-120 min after K/C injection), −101.1 imp/15 s. Moreover, the “Neuronal responses before and during knee-joint inflammation (imp/15 s)” value in test [1] (Experiment 1, Noxious stimulation at the knee-joint, 120-180 min after K/C injection) is recorded as −37.8 imp/15 s; in test [1] (Experiment 1, Noxious stimulation at the knee-joint, Baseline) it was 0 imp/15 s; in test [1] (Experiment 2, Non-noxious stimulation at the knee-joint, 30-60 min after K/C injection), −30.6 imp/15 s; in test [1] (Experiment 2, Non-noxious stimulation at the knee-joint, 120-180 min after K/C injection) it was 50.3 imp/15 s; in test [1] (Experiment 2, Non-noxious stimulation at the knee-joint, 180-240 min after K/C injection) it was 68.7 imp/15 s; in test [1] (Experiment 2, Non-noxious stimulation at the knee-joint, Baseline) it was 0 imp/15 s. The “Neuronal responses before and during knee-joint inflammation (imp/15 s)” value is given as −9.2 imp/15 s in test [1] (Experiment 2, Noxious stimulation at the knee-joint, 30-60 min after K/C injection); 60 imp/15 s in test [1] (Experiment 2, Noxious stimulation at the knee-joint, 120-180 min after K/C injection); 96.7 imp/15 s in test [1] (Experiment 2, Noxious stimulation at the knee-joint, 180-240 min after K/C injection); 0 imp/15 s in test [1] (Experiment 2, Noxious stimulation at the knee-joint, Baseline). The “effect in model 2” value in test [1] (rat) was “good effect”.

For `CC(=O)Nc1ccc(O)cc1` [Paracetamol, reference compound], the “Statistical difference as compared with the vehicle” value is “yes” in test [2] and “no” in test [3] (running wheel AUC, seven days, 200 mg/kg twice daily). For the same compound, in test [3] (mouse, 7 days, extremely high dose), the “distance run as compared with the vehicle group” value is “no improvement”.
